According to patent publication US20150352107A1, “ALPHA7 NEURONAL NICOTINIC RECEPTOR LIGAND AND ANTIPSYCHOTIC COMPOSITIONS” (AbbVie Inc., priority 2005, published 2015):
Entries after “also recorded” stand apart in the source; their conditions may differ. Like-named read-outs stand apart in the source and are kept apart here.

Assays:
[1] = cited from earlier work; for EPS risk: dose of augmented risk / Optimal Dose and/or Minimally Effective Dose: clinical use
[2] = system: DBA/2J mice; experiment: Prepulse inhibition (PPI) of startle in DBA/2 mice; assay type: in vivo, mouse; conditions: for dose at which efficacy was observed in DBA2 mouse PPI: i.p., antipsychotic alone, FIG. 1
Description: Dysfunctions of sensory gating and information processing have been putatively associated with clinical features such as perpetual aberrations, hallucinations and distraction and been considered as potential precursors of sensory overload, cognitive fragmentation and disorganization. Among the physiological measures, one approach has involved the startle reflex with the prepulse inhibition (PPI) paradigm. […] PPI refers to a reduction in the acoustic startle reflex to a loud noise when the loud noise is preceded by a weak auditory stimulus. At short lead intervals, this has the effect of markedly reducing or gating the amplitude of the startle response and increasing its latency. Disruption of PPI occurs with agonists of dopamine and serotonin, and with glutamate/N-methyl D aspartate (NMDA) receptor antagonists, or can be induced by genetic (e.g., DBA2 mouse strain) and experimental manipulations (e.g., rearing rats in isolation, neurotoxic lesions, or other methods). […] (Olivier B., et al., Psychopharmacology (2001) vol. 156:284-290; Ouagazzal A-M., Psychopharmacology (2001) vol. 156:273-283; Simosky J. K., Psychopharmacology (2003) vol. 165:386-396). To accomplish the study, the following materials and methods were used.
Male DBA/2J mice (Jackson Laboratories AX9 facility, Bar Harbor, Me., USA) at age 6-8 weeks old were used for all investigations.
Startle response and PPI were measured using startle chambers from Hamilton Kinder (Poway, Calif., USA). Each chamber contained a plexiglas rectangle with an adjustable ceiling housed in a ventilated, sound-attenuated cubicle. The ceiling was adjusted on an individual (animal by animal) basis to allow for adequate headroom but no rears or extensive locomotion. The chamber was placed over an anchor plate attached to a piezoelectric disk to transduce startle responses to a computer. A loudspeaker located in each chamber delivered the background noise (65 dB), and the acoustic stimuli. A constant white noise was maintained in the experimental room for the duration of the experiment by a white noise generator (Radioshack, USA). Each session was initiated with a 5-minute acclimation period followed by four successive 120 dB, 40 ms trials. These trials were not included in the main analysis, but are referred to as baseline responses. Animals were then presented with 5 different trial types: startle pulse (120 dB, 40), or prepulse stimulus of one of three sound levels (70, 75, or 80 dB) for 20 ms, followed 100 ms later by an acoustic startle (120 dB) for 40 ms. A total of 12 trials under each condition were delivered in a random sequence and all trials were separated by a variable inter-trial interval of 5-25 s. Finally, this sequence ended with the presentation of four 120 dB, 40 ms sound bursts (not included in the main analyses, but included in the baseline or habituation analyses). The animals were injected with the test compounds 30 minutes before the start of the trials. In the startle alone trials, the basic auditory startle, or startle response was measured, and in the prepulse plus startle trials, the levels of PPI was calculated as a percentage score for each acoustic prepulse trial type using (typically) the formula: […].
Data were first analyzed using a two-way repeated measures analysis of variance (ANOVA) with two independent factors. If there was a significant interaction of both factors, subsequent post hoc one-way ANOVAs were performed using each treatment combination as an independent group. All post hoc significance was determined using Fishers protected least significant difference test. (p<0.05 was regarded as significant).
Startle response and PPI were measured using startle chambers from Hamilton Kinder (Poway, Calif., USA). Each chamber contained a plexiglas rectangle with an adjustable ceiling housed in a ventilated, sound-attenuated cubicle. […]

[3] = system: Sprague Dawley rats; experiment: Catalepsy bar test in rats (EPS predictor)
Procedure: One of the adverse effects of antipsychotic medications is extrapyramidal movement disorder syndrome attributed to blockade of the dopamine D2 receptors. Extrapyramidal movement disorder can be predicted by the cataleptic response elicited by an antipsychotic in a rodent. To assess whether Compound 1 alone evoked cataleptic responses or interfered with the cataleptic effect of the antipsychotic, the following set of studies were conducted. The materials and methods used to accomplish the study follow.
Male Sprague Dawley rats (CRL: CD (SD), Charles River Laboratories, Omaha, Nebr.) weighing 300-325 g were used for the experiment.
Rats were handled and habituated to the testing room before starting. […] The degree of catalepsy was measured by gently placing both forepaws over a metal bar (1.1 cm. diameter suspended 8 cm. above the table top). The time in seconds until the rat took both paws off the bar was recorded, with a maximum cut-off of 300 seconds. […] Alternately, any catalepsy trial time that was greater than 15 seconds (up to 300 seconds) was recorded.
Rats were handled and habituated to the testing room before starting. […] The degree of catalepsy was measured by gently placing both forepaws over a metal bar (1.1 cm. diameter suspended 8 cm. above the table top). The time in seconds until the rat took both paws off the bar was recorded, with a maximum cut-off of 300 seconds. […]

Structure (SMILES): Cc1cc2c(s1)Nc1ccccc1N=C2N1CCN(C)CC1 [Olanzapine, 2-methyl-4-(4-methyl-1-piperazinyl)-10H-thieno[2,3-b][1,5]benzodiazepine]
- EPS risk: dose of augmented risk [1]: risk >7.5 mg/kg/day
- Optimal Dose and/or Minimally Effective Dose [1]: 10 to 20 mg/day

Structure (SMILES): O=C1Cc2cc(CCN3CCN(c4nsc5ccccc45)CC3)c(Cl)cc2N1 [Ziprasidone, 5-[2-[4-(1,2-benzoisothiazol-3-yl)-1-piperazinyl]ethyl]-6-chloro-1,3-dihydro-2H-indol-2-one]
- Dose of Increased Side Effect Risk ([1]; EPS risk): >80 mg/day
- EPS risk: dose of augmented risk [1]: risk >80 mg/kg/day
- Optimal Dose and/or Minimally Effective Dose [1]: 120 mg/day

Structure (SMILES): Cc1nc2n(c(=O)c1CCN1CCC(c3noc4cc(F)ccc34)CC1)CCCC2 [Risperidone, 3-[2-[4-(6-fluoro-1,2-benzisoxazol-3-yl)-1-piperidinyl]ethyl]-6,7,8,9-tetrahydro-2-methyl-4H-pyrido[1,2-a]pyrimidin-4-one]
- Dose of Increased Side Effect Risk ([1]; EPS risk): ≧6 mg/day
- EPS risk: dose of augmented risk [1]: risk >6 mg/kg/day
- Optimal Dose and/or Minimally Effective Dose [1]: 4 to 6 mg/day

Structure (SMILES): c1cc2cc(-c3ccc(O[C@H]4CN5CCC4CC5)nn3)ccc2[nH]1 [Compound 1]
- effect on PPI in combination with maximally efficacious haloperidol ([2]; Compound 1 0.04-4.0 mg/kg i.p. 10 minutes prior to maximally efficacious dose of haloperidol, FIG. 5): significant potentiation of effects; also recorded: does not interfere with the efficacy of haloperidol
- effect on PPI in combination with sub efficacious risperidone ([2]; Compound 1 (0.04 mg/kg) + risperidone 0.1 mg/kg, FIG. 2): a maximally efficacious response is achieved; also recorded: boosting the effect of a sub efficacious dose of risperidone
- effect on PPI in combination with sub efficacious haloperidol ([2]; Compound 1 (0.04-4.0 mg/kg) + haloperidol 0.3 mg/kg, FIG. 4): more efficacious; also recorded: boosting the effect of a sub efficacious dose of haloperidol
- effect on PPI, alone ([2]; Compound 1 alone at 0.04 mg/kg, FIG. 2): does not have an effect

Structure (SMILES): O=C1CCc2ccc(OCCCCN3CCN(c4cccc(Cl)c4Cl)CC3)cc2N1 [Arpiprazole]
- Optimal Dose and/or Minimally Effective Dose [1]: 15 mg/day

Structure (SMILES): c1ccc(-c2ccc(N3CC4CNCC4C3)nn2)cc1 (centres unmarked) [Compound 2, 2-(6-phenylpyridazin-3-yl)octahydropyrrolo[3,4-c]pyrrole]
- effect on PPI in combination with sub efficacious risperidone ([2]; Compound 2 0.4-4.0 mg/kg + risperidone 0.1 mg/kg, FIG. 7): attained maximal efficacy; also recorded: potentiates the efficacy of risperidone
- effect on PPI, alone ([2]; Compound 2 alone 0.04-4.0 mg/kg, FIG. 6): no effect
- effect on risperidone-induced catalepsy ([3]; Compound 2 4.0 mg/kg i.p. + risperidone 2.5 mg/kg i.p., FIG. 11): did not significantly alter cataleptic behavior of risperidone

Structure (SMILES): CN1CCN(C2=Nc3cc(Cl)ccc3Nc3ccccc32)CC1 [Clozapine, 8-chloro-11-(4-methyl-1-piperazinyl)-5H-dibenzo[b,e][1,4]diazepine]
- dose at which efficacy was observed in DBA2 mouse PPI [2]: 3 mg/kg
- Optimal Dose and/or Minimally Effective Dose [1]: 300 to 400 mg/day
- Dose of Increased Side Effect Risk ([1]; low risk for seizures): <300 mg/day
- Dose of Increased Side Effect Risk ([1]; moderate risk for seizures): 300 to 599 mg/day

Structure (SMILES): O=C(CCCN1CCC(O)(c2ccc(Cl)cc2)CC1)c1ccc(F)cc1 [Haloperidol, 4-(4-[4-chlorophenyl]-4-hydroxy-1-piperidinyl)-1-(4-fluorophenyl)-1-butanone]
- dose at which efficacy was observed in DBA2 mouse PPI [2]: 3 mg/kg
- Optimal Dose and/or Minimally Effective Dose [1]: 2 to 5 mg/day
- Dose of Increased Side Effect Risk ([1]; risk for EPS): ~3 mg

Structure (SMILES): O=C(N[C@H]1CN2CCC1CC2)c1ccc(Cl)cc1.O=C(O)/C=C/C(=O)O [Compound 3, N-(3R)-1-azabicyclo[2,2,2]oct-3-yl-4-chlorobenzamide fumarate]
- effect on PPI in combination with sub efficacious risperidone ([2]; Compound 3 1.0-10.0 mg/kg + risperidone 0.1 mg/kg, FIG. 9, fumarate): attained maximal efficacy; also recorded: boosting the effect of a sub efficacious dose of risperidone
- effect on PPI, alone ([2]; Compound 3 alone 1.0-10.0 mg/kg, FIG. 8): no effect
- effect on risperidone-induced catalepsy ([3]; Compound 3 3.0 mg/kg i.p. + risperidone 2.5 mg/kg i.p., FIG. 12): did not significantly alter cataleptic behavior of risperidone
